# Measured values taken from US10023592B2, “Bromodomain inhibitors” (Celgene Quanticel Research, Inc., priority 2013, dated 2018).
# How the values were obtained:
# BRD4(BD1) = BRD4(BD1) (Homo sapiens (Human), UniProt O60885); test: In vitro enzyme inhibition assay (BRD4 AlphaScreen); format: binding
# Summary of the method: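 AlphaScreen proximity readout, using streptavidin donor and Ni-chelate acceptor beads at 5 μg/mL final, monitors biotin-H4 tetraacetylated peptide interaction with purified His-tagged BRD4.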
# [1] = system: NCI-H460, human non-small cell lung cancer cells; test: Cell-MTS proliferation assay, NCI-H460; format: cell-based; conditions: Homo sapiens, 168 hr
# Summary of the method: (§1)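 Cells were seeded per 96-well at densities giving ~90% confluence by day 7 (Raji 15,000, HL-60 5,000, NCI-H460 3,000) and dosed 24 hr later with an 11-point dilution, 100 μM to 2.0 nM final. Seven-day MTS colorimetric read at OD490; IC50 from background-subtracted, DMSO-normalised values.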
# [2] = system: HL-60, human proleukemia cells; test: Cell-MTS proliferation assay, HL-60; format: cell-based; conditions: Homo sapiens, 168 hr
# Summary of the method: as §1
# [3] = system: Raji, human Burkitts lymphoma cells; test: Cell-MTS proliferation assay, Raji; format: cell-based; conditions: Homo sapiens, 168 hr
# Summary of the method: as §1
# [4] = in vitro enzyme inhibition assay
# [5] = Cell-MTS proliferation, NCI-H460 cells
# [6] = Cell-MTS proliferation, HL-60 cells
# [7] = Cell-MTS proliferation, Raji cells
# [8] = NCI-H460, Cell-MTS proliferation
# [9] = NCI-H460, Cell-MTS, class symbols A/B/C
# [10] = HL-60, Cell-MTS, class symbols A/B/C
# [11] = Raji, Cell-MTS, class symbols A/B/C
Compound,IC50 (BRD4(BD1); [4]) [nM],"IC50 [1, 5] [µM]","IC50 [2, 6] [nM]","IC50 [3, 7] [nM]","IC50 [1, 8] [µM]","IC50 ([2]; HL-60, Cell-MTS proliferation) [nM]","IC50 ([3]; Raji, Cell-MTS proliferation) [nM]",IC50 (BRD4(BD1); class symbols A/B/C) [nM],"IC50 [1, 9] [µM]","IC50 [2, 10] [nM]","IC50 [3, 11] [nM]"
"CCS(=O)(=O)c1ccc(OCC2CC2)c(-c2cn(C)c(=O)c3ccc(F)cc23)c1 [Example 174, 4-[2-(cyclopropylmethoxy)-5-ethylsulfonylphenyl]-6-fluoro-2-methylisoquinolin-1-one]",< 500,,,,> 5,< 500,< 500,,,,
"CCS(=O)(=O)Nc1ccc(Oc2ccc(F)cc2F)c(-c2cn(C)c(=O)c3nncn23)c1 [Example 236, N-[4-(2,4-difluorophenoxy)-3-(7-methyl-8-oxo-[1,2,4]triazolo[4,3-a]pyrazin-5-yl)phenyl]ethanesulfonamide]",< 500,,,,> 5,500 to 5000,> 5000,,,,
"Cn1cc(-c2cc(S(C)(=O)=O)ccc2N[C@H]2CC[C@H](O)CC2)c2ccccc2c1=O [Example 192, 4-[2-[(trans-4-hydroxycyclohexyl)amino]-5-methylsulfonylphenyl]-2-methylisoquinolin-1-one]",< 500,,,,> 5,< 500,< 500,,,,
"Cc1cc(-c2cc(S(C)(=O)=O)ccc2OCC2CC2)nn(C)c1=O [Example 136, 6-[2-(cyclopropylmethoxy)-5-methylsulfonylphenyl]-2,4-dimethylpyridazin-3-one]",,,,,,,,500 to 5000,> 5,500 to 5000,> 5000
"CNc1cc(-c2ccc(OC)c(NS(C)(=O)=O)c2)cn(C)c1=O [Example 110, N-[2-methoxy-5-[1-methyl-5-(methylamino)-6-oxopyridin-3-yl]phenyl]methanesulfonamide]",,,,,,,,< 500,> 5,500 to 5000,> 5000
"Cc1cc(-c2cc(S(C)(=O)=O)ccc2OCC2CC2)cn(CC2CC2)c1=O [Example 242, 5-[2-(cyclopropylmethoxy)-5-methylsulfonylphenyl]-1-(cyclopropylmethyl)-3-methylpyridin-2-one]",< 500,,,,> 5,< 500,500 to 5000,,,,
"Cc1cc(-c2cc(N(C)S(C)(=O)=O)ccc2Oc2ccc(F)cc2F)cn(C)c1=O [Example 229, N-[4-(2,4-difluorophenoxy)-3-(1,5-dimethyl-6-oxopyridin-3-yl)phenyl]-N-methylmethanesulfonamide]",< 500,,,,> 5,< 500,< 500,,,,
"CCOc1ccc(S(C)(=O)=O)cc1-c1cn(C)c(=O)c2ccccc12 [Example 177, 4-(2-ethoxy-5-methylsulfonylphenyl)-2-methylisoquinolin-1-one]",< 500,,,,> 5,< 500,500 to 5000,,,,
"Cn1cc(-c2cc(S(C)(=O)=O)ccc2O[C@H]2CC[C@@H](N)CC2)c2ccccc2c1=O [Example 183, 4-[2-(cis-4-aminocyclohexyl)oxy-5-methylsulfonylphenyl]-2-methylisoquinolin-1-one]",< 500,,,,> 5,500 to 5000,> 5000,,,,
"CCS(=O)(=O)Nc1ccc(Oc2ccc(F)cc2F)c(-c2cn(C)c(=O)cc2F)c1 [Example 139, N-[4-(2,4-difluorophenoxy)-3-(4-fluoro-1-methyl-6-oxopyridin-3-yl)phenyl]ethanesulfonamide]",,,,,,,,< 500,> 5,< 500,< 500
"Cn1cc(-c2cc(S(C)(=O)=O)ccc2OCC2CC2)c2cc(Cl)oc2c1=O [Example 260, 2-chloro-4-[2-(cyclopropylmethoxy)-5-methylsulfonylphenyl]-6-methylfuro[2,3-c]pyridin-7-one]",< 500,,,,0.5 to 5,< 500,< 500,,,,
"Cn1cc(-c2cc(S(C)(=O)=O)ccc2NC2CCOCC2)c2ccccc2c1=O [Example 191, 2-methyl-4-[5-methylsulfonyl-2-(oxan-4-ylamino)phenyl]isoquinolin-1-one]",< 500,,,,> 5,< 500,< 500,,,,
"Cn1cc(-c2ccc3c(=O)n(C)cc(-c4nc(CS(C)(=O)=O)ncc4OCC4CC4)c3c2)cn1 [Example 145, 4-[5-(cyclopropylmethoxy)-2-(methylsulfonylmethyl)pyrimidin-4-yl]-2-methyl-6-(1-methylpyrazol-4-yl)isoquinolin-1-one]",< 500,,,,> 5,< 500,500 to 5000,,,,
"COc1ccc2c(=O)n(C)cc(-c3cc(S(C)(=O)=O)ccc3OCC3CC3)c2c1 [Example 198, 4-(2-(cyclopropylmethoxy)-5-(methylsulfonyl)phenyl)-6-methoxy-2-methylisoquinolin-1(2H)-one]",< 500,,,,> 5,< 500,< 500,,,,
"Cn1cc(-c2cc(S(C)(=O)=O)ncc2OCC2CC2)c2ccccc2c1=O [Example 200, 4-[5-(cyclopropylmethoxy)-2-methylsulfonylpyridin-4-yl]-2-methylisoquinolin-1-one]",< 500,,,,> 5,< 500,500 to 5000,,,,

# Continued, values first:
IC50 (BRD4(BD1); [4]) [nM],"IC50 [1, 5] [µM]","IC50 [2, 6] [nM]","IC50 [3, 7] [nM]","IC50 [1, 8] [µM]","IC50 ([2]; HL-60, Cell-MTS proliferation) [nM]","IC50 ([3]; Raji, Cell-MTS proliferation) [nM]",IC50 (BRD4(BD1); class symbols A/B/C) [nM],"IC50 [1, 9] [µM]","IC50 [2, 10] [nM]","IC50 [3, 11] [nM]",Compound
< 500,> 5,< 500,< 500,,,,,,,,"Cc1cc(-c2cc(NS(C)(=O)=O)ccc2O[C@H]2CC[C@H](O)CC2)cn(C)c1=O [Example 433, N-[3-(1,5-dimethyl-6-oxopyridin-3-yl)-4-(trans-4-hydroxycyclohexyl)oxyphenyl]methanesulfonamide]"
< 500,> 5,< 500,< 500,,,,,,,,"Cc1cc(-c2cc(NS(C)(=O)=O)ccc2OC2CCC(F)(F)CC2)cn(C)c1=O [Example 447, N-[4-(4,4-difluorocyclohexyl)oxy-3-(1,5-dimethyl-6-oxopyridin-3-yl)phenyl]methanesulfonamide]"
< 500,,,,> 5,< 500,< 500,,,,,"CCS(=O)(=O)Nc1ccc(Oc2ccc(F)cc2F)c(-c2cn(C)c(=O)c3oc(C)cc23)c1 [Example 269, N-[4-(2,4-difluorophenoxy)-3-(2,6-dimethyl-7-oxofuro[2,3-c]pyridin-4-yl)phenyl]ethanesulfonamide]"
< 500,,,,> 5,< 500,500 to 5000,,,,,"CCS(=O)(=O)Cc1ccc(Oc2ccc(F)cc2F)c(-c2cn(C)c(=O)c3cncn23)c1 [Example 369, 5-[2-(2,4-difluorophenoxy)-5-(ethylsulfonylmethyl)phenyl]-7-methylimidazo[1,5-a]pyrazin-8-one]"
< 500,> 5,< 500,< 500,,,,,,,,"COc1cc(-c2cc(CS(C)(=O)=O)ccc2Oc2ccc(F)cc2F)cn(C)c1=O [Example 400, 5-[2-(2,4-difluorophenoxy)-5-(methylsulfonylmethyl)phenyl]-3-methoxy-1-methylpyridin-2-one]"
< 500,,,,> 5,< 500,< 500,,,,,"CCS(=O)(=O)Cc1ccc(Oc2ccc(F)cc2F)c(-c2cc(OC(F)F)c(=O)n(C)c2)c1 [Example 291, 3-(difluoromethoxy)-5-[2-(2,4-difluorophenoxy)-5-(ethylsulfonylmethyl)phenyl]-1-methylpyridin-2-one]"
< 500,> 5,< 500,< 500,,,,,,,,"CCS(=O)(=O)c1ccc(OCC2CC2)c(-c2cc(C)c(=O)n(C)c2)c1 [Example 450, 5-[2-(cyclopropylmethoxy)-5-ethylsulfonylphenyl]-1,3-dimethylpyridin-2-one]"
< 500,> 5,< 500,< 500,,,,,,,,"CN(C)c1cc(-c2cc(S(C)(=O)=O)ccc2NCC2CC2)cn(C)c1=O [Example 438, 5-[2-(cyclopropylmethylamino)-5-methylsulfonylphenyl]-3-(dimethylamino)-1-methylpyridin-2-one]"
< 500,> 5,< 500,< 500,,,,,,,,"CC#CCOc1ccc(S(C)(=O)=O)cc1-c1cc(C)c(=O)n(C)c1 [Example 388, 5-(2-but-2-ynoxy-5-methylsulfonylphenyl)-1,3-dimethylpyridin-2-one]"
< 500,> 5,< 500,< 500,,,,,,,,"CCS(=O)(=O)Nc1ccc(Oc2ccc(F)cc2F)c(-c2cc(SC)c(=O)n(C)c2)c1 [Example 402, N-[4-(2,4-difluorophenoxy)-3-(1-methyl-5-methylsulfanyl-6-oxopyridin-3-yl)phenyl]ethanesulfonamide]"
< 500,> 5,< 500,< 500,,,,,,,,"CN(C)c1cc(-c2cc(S(C)(=O)=O)ccc2OCC2CC2)cn(C)c1=O [Example 474, 5-[2-(cyclopropylmethoxy)-5-methylsulfonylphenyl]-3-(dimethylamino)-1-methylpyridin-2-one]"
< 500,,,,> 5,< 500,500 to 5000,,,,,"Cc1cc(-c2cc(OCc3ccccc3)cc(S(C)(=O)=O)c2)cn(C)c1=O [Example 324, 1,3-dimethyl-5-(3-methylsulfonyl-5-phenylmethoxyphenyl)pyridin-2-one]"
